Reference: patent US9901592B2 (priority 2008, dated 2018)
In brackets after ≈: the same amount, converted by molar mass. Read-outs that look alike come from different tables or passages of the source.

What was measured:
[1] = system: streptococci; test: organism not typed; type: cell-based
[2] = system: S. pneumoniae; test: microbe, parasite or virus in culture; type: cell-based; settings: for MIC: Streptococcus pneumoniae
[3] = system: S. pyogenes; test: mouse systemic infection model (PD50); type: in vivo
[4] = system: S. pneumoniae; test: mouse subcutaneous abscess model; type: in vivo; settings: for average log10 CFU/gram of abscess: S. pneumoniae 1629, 10 mg/Kg PO
Method: Example. Efficacy was evaluated in several infection models. […] PD50s were determined 24 hr post infection. CEM-101 was further evaluated in a subcutaneous abscess mouse model against S. pneumoniae. CD-1 female mice were infected via SC injection of bacteria mixed with cyclodextran beads. Two hr post infection, mice received a single oral dose of CEM 101 or control agents. At 48 hr post dose, mice were euthanized, abscesses aseptically removed and bacteria enumerated. CFU per abscess was determined and compared to the untreated control. […] 24 hr post treatment, the thighs were processed and CFU/gram of thigh determined.
(§1) Example. Mouse Subcutaneous Abscess. Bacteria were prepared from an overnight plate culture by re-suspending in saline and adjusting the suspension to a 0.1 OD at 625 nm of a 1:10 dilution. The adjusted bacterial suspension was mixed 1:2 with cyclodextran beads prepared as per package instructions. The right flanks of the mice were shaven and injected subcutaneously with 0.2 ml of the bacterial inoculum. Two hours post infection mice were treated via oral gavage with either test article or control drug. 48 hours post infection, mice were euthanized, abscesses aseptically removed, homogenized, serially diluted and plated on bacterial growth agar. After overnight incubation, colonies were counted and CFUs/gram of abscess were determined.
Example. The ability of CEM101 to reduce the microbial load in abscess infection model was also assessed against S. pneumoniae isolates.

[5] = system: S. pyogenes ATCC 8668; test: mouse subcutaneous abscess model; type: in vivo; settings: 48 hr. post infection
Method: as §1
Example. Mouse Subcutaneous Abscess˜S. pyogenes ATCC 8668 (Average Log10 CFU/gram of Abscess). Abscess processing 48 hours post infection.

[6] = system: S. pneumoniae; test: mouse systemic infection model (PD50); type: in vivo
[7] = read-out: Initial MIC, strain 24 Macrolide-R [erm(B)], parent
[8] = read-out: Initial MIC, strain 1076 Macrolide-R [erm(B)&mef(A)], parent
[9] = read-out: Initial MIC, strain 1077 Macrolide-S, parent
[10] = read-out: Initial MIC, strain 1635 Macrolide-R [erm(A)], parent
[11] = read-out: Initial MIC, strain 2686 Macrolide-R [L4 mutation], parent
[12] = read-out: Initial MIC, strain 3009 Macrolide-R [23SrRNA mutation], parent
[13] = read-out: Initial MIC, strain 3665 Macrolide-R [mef(A)], parent
[14] = read-out: Initial MIC, strain 7127 Macrolide-S [S20N in L4, A105V in L22], parent
[15] = read-out: MIC of parents of resistant clones, S. pneumoniae (CEM-101: 7 strains)
[16] = read-out: Selected Resistance MIC, strain 1077 Macrolide-S, after serial passages in the drug
[17] = read-out: Selected Resistance MIC, strain 1635 Macrolide-R [erm(A)], after serial passages in the drug
[18] = read-out: Selected Resistance MIC, strain 2686 Macrolide-R [L4 mutation], after serial passages in the drug
[19] = read-out: Selected Resistance MIC, strain 3009 Macrolide-R [23SrRNA mutation], after serial passages in the drug
[20] = read-out: Selected Resistance MIC, strain 3665 Macrolide-R [mef(A)], after serial passages in the drug
[21] = strain 24 Macrolide-R [erm(B)], clone selected with CEM-101
[22] = strain 24 Macrolide-R [erm(B)], clone selected with TEL
[23] = strain 1076 Macrolide-R [erm(B)&mef(A)], clone selected with CEM-101
[24] = strain 1076 Macrolide-R [erm(B)&mef(A)], clone selected with TEL
[25] = strain 1077 Macrolide-S, clone selected with AZI
[26] = strain 1077 Macrolide-S, clone selected with CEM-101
[27] = strain 1077 Macrolide-S, clone selected with CLN
[28] = strain 1077 Macrolide-S, clone selected with TEL
[29] = strain 1635 Macrolide-R [erm(A)], clone selected with AZI
[30] = strain 1635 Macrolide-R [erm(A)], clone selected with CEM-101
[31] = strain 1635 Macrolide-R [erm(A)], clone selected with CLN
[32] = strain 1635 Macrolide-R [erm(A)], clone selected with CLR
[33] = strain 2686 Macrolide-R [L4 mutation], clone selected with CEM-101
[34] = strain 2686 Macrolide-R [L4 mutation], clone selected with CLR
[35] = strain 2686 Macrolide-R [L4 mutation], clone selected with TEL
[36] = strain 3009 Macrolide-R [23SrRNA mutation], clone selected with CEM-101
[37] = strain 3009 Macrolide-R [23SrRNA mutation], clone selected with CLR
[38] = strain 3665 Macrolide-R [mef(A)], clone selected with CEM-101
[39] = strain 3665 Macrolide-R [mef(A)], clone selected with CLR
[40] = strain 3665 Macrolide-R [mef(A)], clone selected with TEL
[41] = strain 7127 Macrolide-S [S20N in L4, A105V in L22], clone selected with AZI
[42] = strain 7127 Macrolide-S [S20N in L4, A105V in L22], clone selected with CEM-101
[43] = strain 7127 Macrolide-S [S20N in L4, A105V in L22], clone selected with CLN
[44] = strain 7127 Macrolide-S [S20N in L4, A105V in L22], clone selected with CLR
[45] = strain 7127 Macrolide-S [S20N in L4, A105V in L22], clone selected with TEL

CCC[C@@H]1C[C@@H](C(=O)N[C@@H]([C@H]2O[C@H](SC)[C@H](O)[C@@H](O)[C@H]2O)[C@H](C)Cl)N(C)C1 [CLN, clindamycin]
MIC50 [1]: ≤ 0.12 µg/mL
strains with resistant clones / strains tested ([2]; S. pneumoniae): 2/5
MIC [2, 7]: > 64 µg/mL
MIC [2, 8]: 64 µg/mL (≈ 151 µM)
MIC [2, 9]: 0.016 µg/mL (≈ 0.0376 µM)
MIC [2, 10]: 0.06 µg/mL (≈ 0.141 µM)
MIC [2, 11]: 0.03 µg/mL (≈ 0.0706 µM)
MIC [2, 12]: 1 µg/mL (≈ 2.35 µM)
MIC [2, 13]: 0.016 µg/mL (≈ 0.0376 µM)
MIC [2, 14]: 0.03 µg/mL (≈ 0.0706 µM)
MIC [2, 15]: 0.03 to 0.06 µg/mL
MIC ([2]; read-out: Parental MICs, S. pneumoniae, 8 strains with varying resistotypes): 0.016 to 1 µg/mL (≈ 0.0376 to 2.35 µM)
MIC [2, 16]: 4 µg/mL (≈ 9.41 µM)
MIC [2, 17]: > 64 µg/mL
MIC [2, 18]: 0.125 µg/mL (≈ 0.294 µM)
MIC [2, 19]: 2 µg/mL (≈ 4.71 µM)
MIC [2, 20]: 0.03 µg/mL (≈ 0.0706 µM)
Retest MIC after 10 Antibiotic-free Subcultures [2, 21]: >64 µg/mL
Retest MIC after 10 Antibiotic-free Subcultures [2, 22]: >64 µg/mL
Retest MIC after 10 Antibiotic-free Subcultures [2, 23]: >64 µg/mL
Retest MIC after 10 Antibiotic-free Subcultures [2, 24]: >64 µg/mL
Retest MIC after 10 Antibiotic-free Subcultures [2, 25]: 4 µg/mL
Retest MIC after 10 Antibiotic-free Subcultures [2, 26]: 0.03 µg/mL
Retest MIC after 10 Antibiotic-free Subcultures [2, 27]: 8 µg/mL
Retest MIC after 10 Antibiotic-free Subcultures [2, 28]: 8 µg/mL
Retest MIC after 10 Antibiotic-free Subcultures [2, 29]: 0.03 µg/mL
Retest MIC after 10 Antibiotic-free Subcultures [2, 30]: 0.03 µg/mL
Retest MIC after 10 Antibiotic-free Subcultures [2, 31]: >64 µg/mL
Retest MIC after 10 Antibiotic-free Subcultures [2, 32]: 0.25 µg/mL
Retest MIC after 10 Antibiotic-free Subcultures [2, 33]: 0.03 µg/mL
Retest MIC after 10 Antibiotic-free Subcultures [2, 34]: 0.03 µg/mL
Retest MIC after 10 Antibiotic-free Subcultures [2, 35]: 0.03 µg/mL
Retest MIC after 10 Antibiotic-free Subcultures [2, 36]: 1 µg/mL
Retest MIC after 10 Antibiotic-free Subcultures [2, 37]: 1 µg/mL
Retest MIC after 10 Antibiotic-free Subcultures [2, 38]: 0.03 µg/mL
Retest MIC after 10 Antibiotic-free Subcultures [2, 39]: 0.03 µg/mL
Retest MIC after 10 Antibiotic-free Subcultures [2, 40]: 0.03 µg/mL
Retest MIC after 10 Antibiotic-free Subcultures [2, 41]: 0.06 µg/mL
Retest MIC after 10 Antibiotic-free Subcultures [2, 42]: 0.03 µg/mL
Retest MIC after 10 Antibiotic-free Subcultures [2, 43]: 0.25 µg/mL
Retest MIC after 10 Antibiotic-free Subcultures [2, 44]: 1 µg/mL
Retest MIC after 10 Antibiotic-free Subcultures [2, 45]: 0.03 µg/mL

CC[C@H]1OC(=O)[C@H](C)[C@@H](O[C@H]2C[C@@](C)(OC)[C@@H](O)[C@H](C)O2)[C@H](C)[C@@H](O[C@@H]2O[C@H](C)C[C@H](N(C)C)[C@H]2O)[C@](C)(OC)C[C@@H](C)C(=O)[C@H](C)[C@@H](O)[C@]1(C)O [CLR, clarithromycin]
PD50 ([3]; S. pyogenes (erythromycin R)): 22.8 mg/kg
PD50 ([3]; S. pyogenes (macrolide susceptible)): 24.8 mg/kg
MIC50 [1]: 0.03 µg/mL (≈ 0.0401 µM)
MIC90 [1]: 0.03 µg/mL (≈ 0.0401 µM)
MIC Range [1]: ≦0.008-0.25 μg/ml
average log10 CFU/gram of abscess ([4]; 24 hours): ~5.5 log10 CFU/gram
average log10 CFU/gram of abscess ([4]; 48 hours): ~5.5 log10 CFU/gram
log decrease of CFU from untreated mice ([4]; abscess, 10 mg/Kg QD dose): 1.5 log10
Average Log10 CFU/gram of Abscess ([5]; 10 mg/Kg): 7.63 Log10 CFU/gram
Average Log10 CFU/gram of Abscess ([5]; 20 mg/Kg): 7.82 Log10 CFU/gram
strains with resistant clones / strains tested ([2]; S. pneumoniae): 5/6
Parental MICs ([2]; S. pneumoniae, 8 strains with varying resistotypes): 0.016 to 16 µg/mL
MIC [2, 7]: > 64 µg/mL
MIC [2, 8]: > 64 µg/mL
MIC [2, 9]: 0.016 µg/mL (≈ 0.0214 µM)
MIC [2, 10]: 0.5 µg/mL (≈ 0.668 µM)
MIC [2, 11]: 8 µg/mL (≈ 10.7 µM)
MIC [2, 12]: 16 µg/mL (≈ 21.4 µM)
MIC [2, 13]: 2 µg/mL (≈ 2.67 µM)
MIC [2, 14]: 0.03 µg/mL (≈ 0.0401 µM)
MIC [2, 15]: 0.03 to 16 µg/mL
MIC [2, 16]: 0.008 µg/mL (≈ 0.0107 µM)
MIC [2, 17]: > 64 µg/mL
MIC [2, 18]: > 64 µg/mL
MIC [2, 19]: > 64 µg/mL
MIC [2, 20]: 16 µg/mL (≈ 21.4 µM)
MIC ([2]; read-out: Selected Resistance MIC, strain 7127 Macrolide-S [S20N in L4, A105V in L22], after serial passages in the drug): 16 µg/mL (≈ 21.4 µM)
days until resistant clones (MIC increase) ([2]; daily passages, min. 14, max. 50): 14 to 49 days
Retest MIC after 10 Antibiotic-free Subcultures [2, 21]: >64 µg/mL
Retest MIC after 10 Antibiotic-free Subcultures [2, 22]: >64 µg/mL
Retest MIC after 10 Antibiotic-free Subcultures [2, 23]: >64 µg/mL
Retest MIC after 10 Antibiotic-free Subcultures [2, 24]: >64 µg/mL
Retest MIC after 10 Antibiotic-free Subcultures [2, 25]: >64 µg/mL
Retest MIC after 10 Antibiotic-free Subcultures [2, 26]: 0.06 µg/mL
Retest MIC after 10 Antibiotic-free Subcultures [2, 27]: >64 µg/mL
Retest MIC after 10 Antibiotic-free Subcultures [2, 28]: >64 µg/mL
Retest MIC after 10 Antibiotic-free Subcultures [2, 29]: >64 µg/mL
Retest MIC after 10 Antibiotic-free Subcultures [2, 30]: 1 µg/mL
Retest MIC after 10 Antibiotic-free Subcultures [2, 31]: 0.5 µg/mL
Retest MIC after 10 Antibiotic-free Subcultures [2, 32]: >64 µg/mL
Retest MIC after 10 Antibiotic-free Subcultures [2, 33]: 32 µg/mL
Retest MIC after 10 Antibiotic-free Subcultures [2, 34]: >64 µg/mL
Retest MIC after 10 Antibiotic-free Subcultures [2, 35]: 16 µg/mL
Retest MIC after 10 Antibiotic-free Subcultures [2, 36]: >64 µg/mL
Retest MIC after 10 Antibiotic-free Subcultures [2, 37]: 64 µg/mL
Retest MIC after 10 Antibiotic-free Subcultures [2, 38]: 4 µg/mL
Retest MIC after 10 Antibiotic-free Subcultures [2, 39]: 8 µg/mL
Retest MIC after 10 Antibiotic-free Subcultures [2, 40]: 2 µg/mL
Retest MIC after 10 Antibiotic-free Subcultures [2, 41]: 0.5 µg/mL
Retest MIC after 10 Antibiotic-free Subcultures [2, 42]: 0.125 µg/mL
Retest MIC after 10 Antibiotic-free Subcultures [2, 43]: 0.016 µg/mL
Retest MIC after 10 Antibiotic-free Subcultures [2, 44]: 16 µg/mL
Retest MIC after 10 Antibiotic-free Subcultures [2, 45]: 0.06 µg/mL
PD50 ([6]; S. pneumoniae (macrolide susceptible)): 32.1 mg/kg
PD50 ([6]; S. pneumoniae (mefR)): >30 mg/kg
PD50 ([6]; S. pneumoniae serotype 19A): 5.03 mg/kg
